The assay relates to mice where pulmonary fibrosis was induced by bleomycin. Kind of assay: Lung wet weight increase of mice where pulmonary fibrosis was induced by bleomycin. In kind it is in vivo. Conditions: ICR male mice, bleomycin 2 mg/kg i.v. 5 days; test substance 50 mg/kg or pirfenidone 200 mg/kg per os twice daily for 2 weeks; normal control 205, diseased control 303. How it is done: Bleomycin (2 mg/kg) was repeatedly injected intravenously for 5 days to ICR male mice. The mice were organized into 4 groups of normal control group, diseased control group, test substance-administered group and pirfenidone-administered group.
A test substance was suspended in 0.5 w/v % carboxymethyl cellulose sodium (CMC) and 50 mg/kg thereof was repeatedly administered per os with stirring twice daily for 2 weeks using an oral sonde for rats. Pirfenidone was suspended in 0.5 w/v % CMC and 200 mg/kg thereof was repeatedly administered per os with stirring twice daily for 2 weeks using an oral sonde for rats. To the normal control group and the diseased control group, 0.5 w/v % CMC was repeatedly administered per os according to the same administration schedule. After finishing the administration period, both lungs were excised from the mice and their wet weight was measured.

`O=c1oc2c(OS(=O)(=O)c3cccc(Br)c3)cccc2cc1NS(=O)(=O)c1cccc(C(F)(F)F)c1` [Compound 60, 2-Oxo-3-[[3-(trifluoromethyl)phenyl]sulfonylamino]-chromen-8-yl 3-bromobenzenesulfonate] yielded a Wet Lung Weight of 250 mg.

Source of the values: US10004716B2, “Therapeutic/ preventive agent containing coumarin derivative as active ingredient” (NIPPON ZOKI PHARMACEUTICAL CO., LTD., priority 2014, dated 2018).
